From PMC3062156, “Biochanin A, a Phytoestrogenic Isoflavone with Selective Inhibition of Phosphodiesterase 4, Suppresses Ovalbumin-Induced Airway Hyperresponsiveness” (Evidence-based Complementary and Alternative Medicine : eCAM, 2011)

Target: T1, phosphodiesterase 4 (PDE4), high-affinity rolipram binding sites (PDE4H)
T1 construct: native PDE4 in particulate (cell membrane) portion of guinea pig whole brain; subtype not specified
Assay: [3H]-rolipram radioligand displacement on guinea pig brain membranes; weak, […] displacement at […]
Parameters: species or system Cavia porcellus
Details: read-out: EC50 (the source's name)

IC50: > 300 µM
SMILES: COc1ccc(-c2coc3cc(O)cc(O)c3c2=O)cc1 [Biochanin A]
